Results from patent US20100240709A1, “Sulfoximine Derivatives as p38 MAP Kinase Inhibitors” (priority 2005, published 2010).
pIC50: −log10 of the molar value. Values belong to the compound of their own block, whether it stands above or below them.

Legend:
TNF α [1] = assay: In vivo LPS induced TNF α inhibition in Balb/c mice; details: 10 mg/kg orally, 30 minutes prior to i.v. LPS (50 μg/kg); blood 60 minutes after LPS
Protocol: Balb/c mice were kept for acclimatization in the observation room for two days before the experiment. On the day of the experiment, animals were weighed and the test compounds to be administered calculated at a 10 mg/kg body weight basis in a total volume of 2 ml. Control groups received vehicle alone while the treatment groups received the test compound, both given orally, 30 minutes prior to intravenous injection of LPS (50 μg/kg). Blood was collected 60 minutes after the LPS injection from retro orbital plexus, the serum separated & stored in deep freeze till the estimation of TNF by ELISA method.

IL-1 β = assay: Ex-vivo human whole blood, LPS-induced IL-1β by ELISA; type: cell-based; details: LPS 1 ng/ml; for inhibition at 10 µM / inhibition at 100 µM: Homo sapiens
Protocol: (§1) Blood was collected by venous puncture from 3 different volunteers in separate heparinized (100 IU/ml) tubes and incubated in the presence of 10 μM and 100 μM of test compounds for 1 hr at 37° C. Following this LPS (1 ng/ml final concentration) was added and incubation continued for 5 hr. The reaction was terminated by placing the samples on ice for 10 min. The samples were then centrifuged, plasma separated and stored at −70° C. until the analysis of TNF-α and IL-1β by ELISA: […]

TNF α [2] = assay: Ex-vivo human whole blood, LPS-induced TNF-α by ELISA; type: cell-based; details: LPS 1 ng/ml; for inhibition at 10 µM / inhibition at 100 µM: Homo sapiens
Protocol: as §1

p38 MAP kinase = p38 MAP kinase (Homo sapiens, UniProt Q16539); assay: p-38 MAPK Enzyme assay (in vitro ELISA, ATF-2 substrate); type: biochemical; details: ELISA detection of phosphorylated ATF-2
p38 MAP kinase, sequence (Q16539 whole entry): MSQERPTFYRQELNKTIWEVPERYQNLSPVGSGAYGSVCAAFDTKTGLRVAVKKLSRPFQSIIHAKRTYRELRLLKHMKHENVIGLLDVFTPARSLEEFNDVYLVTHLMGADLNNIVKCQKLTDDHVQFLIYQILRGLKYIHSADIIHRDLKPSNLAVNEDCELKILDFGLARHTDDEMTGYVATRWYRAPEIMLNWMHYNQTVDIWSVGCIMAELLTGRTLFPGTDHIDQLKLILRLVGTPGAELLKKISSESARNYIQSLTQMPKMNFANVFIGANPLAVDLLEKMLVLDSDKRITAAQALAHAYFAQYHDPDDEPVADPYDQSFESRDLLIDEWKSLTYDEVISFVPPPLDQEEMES
Excerpt: The compounds were screened using an in vitro ELISA assay for p38 MAP kinase activity. Activated p38 MAP kinase during the course of its biological function phosphorylates its substrates. The assay was based on the detection of a phosphorylated p38 MAP kinase substrate using ATF-2 as the biological substrate. More the activity of the p38 MAP kinase inhibitor in the reaction mixture less will be the amount of active p38 MAP kinase available to phosphorylate ATF-2. So, lower OD value will indicate the higher inhibition of p38 MAP kinase by the specific p38 MAP kinase inhibitor. The quantitation of phosphorylated ATF-2 at varying concentrations of p38 MAP kinase inhibitor was used to determine the IC50 by fitting the results to a logistic dose-response program (Graphpad Prism, CA). IC50 was defined as the concentration of compound required to achieve 50% inhibition of p38 MAP kinase activity.

Compound: CCc1nc(-c2ccc(F)cc2)c(-c2ccnc(N=S(C)(=O)c3cccc(F)c3)c2)s1 (centres unmarked) [Example 47, S-Methyl-S-3-fluorophenyl-N-[4-{2-ethyl-4-(4-fluorophenyl)-thiazol-5-yl}-pyridine-2-yl]-sulfoximine]
In vivo LPS induced TNF α inhibition in Balb/c mice TNF α % inhibition (10 mg/kg) (TNF α [1]): 48.60%
inhibition at 10 µM (IL-1 β; Conc 10 μM): 78.1%
inhibition at 100 µM (IL-1 β; Conc 100 μM): 98.5%
inhibition at 10 µM (TNF α [2]; Conc 10 μM): 24.4%
inhibition at 100 µM (TNF α [2]; Conc 100 μM): 89.6%

pIC50 (p38 MAP kinase): 5.18
Compound: CCc1nc(-c2ccc(F)cc2)c(-c2ccnc(N=S(C)(=O)c3ccc(F)cc3)c2)s1 (single isomer, unassigned; (+)) [Example 44, (+)-S-Methyl-S-4-fluoro-phenyl-N-[4-(2-ethyl-4-(4-fluoro-phenyl)-1,3-thiazol-5-yl)-pyridine-2-yl]-sulfoximine]
In vivo LPS induced TNF α inhibition in Balb/c mice TNF α % inhibition (10 mg/kg) (TNF α [1]): 50.4%
IL-1 β % inhibition (IL-1 β; Conc 10 μM): 64.82%
IL-1 β % inhibition (IL-1 β; Conc 100 μM): 92.36%
TNF α % inhibition (TNF α [2]; Conc 10 μM): 32.74%
TNF α % inhibition (TNF α [2]; Conc 100 μM): 95.59%

Compound: CCc1nc(-c2ccccc2)c(-c2ccnc(N=S(C)(=O)c3cccc(F)c3)c2)s1 (stereo not drawn) [Example 25, S-Methyl-S-(3-fluorophenyl)-N-[4-{2-ethyl-4-phenyl-thiazol-5-yl}-pyridine]-sulfoximine]
In vivo LPS induced TNF α inhibition in Balb/c mice TNF α % inhibition (10 mg/kg) (TNF α [1]): 59.6%
IL-1 β % inhibition (IL-1 β; Conc 10 μM): 38.5%
IL-1 β % inhibition (IL-1 β; Conc 100 μM): 79.4%
TNF α % inhibition (TNF α [2]; Conc 10 μM): 15.39%
TNF α % inhibition (TNF α [2]; Conc 100 μM): 64.06%

pIC50 (p38 MAP kinase): 4.93
Compound: CCc1nc(-c2ccc(F)c(F)c2)c(-c2ccnc(N=S(=O)(c3ccccc3)C(C)C)c2)s1 (centres unmarked) [Example 60, S-Isopropyl-S-phenyl-N-{4-[2-ethyl-4-(3,4-difluorophenyl)-thiazol-5-yl]-pyridin-2-yl}-sulfoximine]
In vivo LPS induced TNF α inhibition in Balb/c mice TNF α % inhibition (10 mg/kg) (TNF α [1]): 53.65%
inhibition at 10 µM (IL-1 β; Conc 10 μM): 35.2%
inhibition at 100 µM (IL-1 β; Conc 100 μM): 84.5%
inhibition at 10 µM (TNF α [2]; Conc 10 μM): 36.7%
inhibition at 100 µM (TNF α [2]; Conc 100 μM): 81.7%

pIC50 (p38 MAP kinase): 4.15
Compound: CCc1nc(-c2ccc(F)cc2)c(-c2ccnc(N=S(C)(=O)c3ccc(F)cc3)c2)s1 (single isomer, unassigned; (-)) [Example 43, (−)-S-Methyl-S-4-fluoro-phenyl-N-[4-(2-ethyl-4-(4-fluoro-phenyl)-1,3-thiazol-5-yl)-pyridine-2-yl]-sulfoximine]
In vivo LPS induced TNF α inhibition in Balb/c mice TNF α % inhibition (10 mg/kg) (TNF α [1]): 49.4%
IL-1 β % inhibition (IL-1 β; Conc 10 μM): 24.62%
inhibition at 100 µM (IL-1 β; Conc 100 μM): 79.3%
TNF α % inhibition (TNF α [2]; Conc 100 μM): 55.14%
inhibition at 10 µM (TNF α [2]; Conc 10 μM): 17.8%

pIC50 (p38 MAP kinase): 5.01
Compound: CCc1nc(-c2ccccc2)c(-c2ccnc(N=S(C)(=O)c3cccc(C)c3)c2)s1 (stereo not drawn) [Example 24, S-Methyl-S-(3-Methylphenyl)-N-[4-{2-ethyl-4-phenyl-thiazol-5-yl}-pyridine]-sulfoximine]
In vivo LPS induced TNF α inhibition in Balb/c mice TNF α % inhibition (10 mg/kg) (TNF α [1]): 39.3%
inhibition at 10 µM (IL-1 β; Conc 10 μM): 22.7%
inhibition at 100 µM (IL-1 β; Conc 100 μM): 81.2%
inhibition at 10 µM (TNF α [2]; Conc 10 μM): 7.43%
inhibition at 100 µM (TNF α [2]; Conc 100 μM): 69.7%

Compound: CCc1nc(-c2ccc(F)cc2)c(-c2ccnc(N=S(C)(=O)c3cccc(C)c3)c2)s1 (centres unmarked) [Example 46, S-Methyl-S-3-methylphenyl-N-[4-(2-ethyl-4-fluorophenyl-thiazol-5-yl)-pyridine]-sulfoximine]
In vivo LPS induced TNF α inhibition in Balb/c mice TNF α % inhibition (10 mg/kg) (TNF α [1]): 56.80%
IL-1 β % inhibition (IL-1 β; Conc 10 μM): 73.3%
IL-1 β % inhibition (IL-1 β; Conc 100 μM): 95.8%
TNF α % inhibition (TNF α [2]; Conc 10 μM): 40.9%
TNF α % inhibition (TNF α [2]; Conc 100 μM): 90.1%

pIC50 (p38 MAP kinase): 5.19
Compound: CCc1nc(-c2ccc(F)cc2)c(-c2ccnc(N=S(C)(=O)c3ccc(OC)cc3)c2)s1 (stereo not drawn) [Example 34, S-(4-Methoxy-phenyl)-S-methyl-N-{-4-[2-ethyl-4-(4-fluoro-phenyl)-thiazol-5-yl]-pyridin-2-yl}-sulfoximine]

pIC50 (p38 MAP kinase): 4.59
Compound: CS(=O)(=Nc1cc(-c2scnc2-c2cccc(F)c2)ccn1)c1ccccc1 (centres unmarked) [Example 71]

pIC50 (p38 MAP kinase): 4.26
Compound: CCc1nc(-c2cccc(C)c2)c(-c2ccnc(N=S(=O)(CC(C)C)c3ccccc3)c2)s1 (centres unmarked) [Example 8, S-Isobutyl-S-phenyl-N-[4-(2-ethyl-4-m-tolyl-thiazol-5-yl)-pyridin-2-yl]-sulfoximine]

pIC50 (p38 MAP kinase): 5.34
Compound: CCc1nc(-c2ccc(F)cc2)c(-c2ccnc(N=S(C)(=O)c3ccccc3)c2)s1 (centres unmarked) [Example 39, S-Methyl-S-phenyl-N-[4-(2-ethyl-4-(4-fluoro-phenyl)-1,3-thiazol-5-yl)-pyridine-2-yl]-sulfoximine]

pIC50 (p38 MAP kinase): 6.77
Compound: CCc1nc(-c2ccc(F)cc2)c(-c2ccnc(N=S(=O)(CC)c3ccccc3)c2)s1 (centres unmarked) [Example 38, S-Ethyl-S-phenyl-N-{4-[2-ethyl-4-(4-fluoro-phenyl)-thiazol-5-yl]-pyridin-2-yl}-sulfoximine]

pIC50 (p38 MAP kinase): 5.21
Compound: CCc1nc(-c2cccc(C)c2)c(-c2ccnc(N=S(=O)(CC)c3ccccc3)c2)s1 (centres unmarked) [Example 14, S-Ethyl-S-Phenyl-N-[4-(2-ethyl-4-(3-methylphenyl)-1,3-thiazol-5-yl)-pyridine-2-yl]-sulfoximine]

pIC50 (p38 MAP kinase): 4.87
Compound: CCc1nc(-c2ccc(F)cc2)c(-c2ccnc(N=S(=O)(c3ccccc3)C(C)C)c2)s1 (single isomer, unassigned; (-)) [Example 36, (−)-Isopropyl-S-phenyl-N-{4-[2-ethyl-4-(4-fluoro-phenyl)-thiazol-5-yl]-pyridin-2-yl}-sulfoximine]
In vivo LPS induced TNF α inhibition in Balb/c mice TNF α % inhibition (10 mg/kg) (TNF α [1]): 43.3%
inhibition at 10 µM (IL-1 β; Conc 10 μM): 38.9%
inhibition at 100 µM (IL-1 β; Conc 100 μM): 96.3%
inhibition at 10 µM (TNF α [2]; Conc 10 μM): 34.3%
inhibition at 100 µM (TNF α [2]; Conc 100 μM): 97.7%

pIC50 (p38 MAP kinase): 5.17
Compound: CCc1nc(-c2cccc(C)c2)c(-c2ccnc(N=S3(=O)CCCC3)c2)s1 [Example 19, 1-Imino-N-[4-(2-ethyl-4-(3-methylphenyl)-1,3-thiazol-5-yl)-pyridine-2-yl]-tetrahydro-thiophene-1-oxide]

pIC50 (p38 MAP kinase): 5.72
Compound: CCc1nc(-c2cccc3ccccc23)c(-c2ccnc(N=S(C)(=O)c3ccccc3)c2)s1 (centres unmarked) [Example 53, S-Methyl-S-phenyl-N-{4-[2-ethyl-4-napthalene-1-yl-thiazol-5-yl]-pyridin-2-yl}-sulfoximine]

pIC50 (p38 MAP kinase): 5.70
Compound: CCc1nc(-c2cccc(C)c2)c(-c2ccnc(N=S(=O)(c3ccccc3)c3ccccc3)c2)s1 [Example 11, S,S-Diphenyl-N-[4-(2-ethyl-4-m-tolyl-thiazol-5-yl)-pyridin-2-yl]-sulfoximine]

pIC50 (p38 MAP kinase): 5.09
Compound: O=S(=Nc1cc(-c2scnc2-c2cccc(F)c2)ccn1)(c1ccccc1)C1CCCC1 (centres unmarked) [Example 70]

pIC50 (p38 MAP kinase): 5.31
Compound: CCc1nc(-c2cccc(C)c2)c(-c2ccnc(N=S(C)(=O)c3ccc(C)cc3)c2)s1 (centres unmarked) [Example 15, S-Methyl-S-4-methylphenyl-N-[4-(2-ethyl-4-(3-methylphenyl)-1,3-thiazol-5-yl)-pyridine-2-yl]-sulfoximine]
